PubChem BioAssay (NCI)
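The compound was tested at five concentrations on cells cultured in 96-well plates, with a 48-hour exposure period. TGI denotes the concentration required for complete inhibition of growth.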

Tests used:
Experiment in all cases: NCI-60 cell line screen, 48 h
[1] = system: 786-0 renal
[2] = system: A498 renal
[3] = system: A549 NSCLC
[4] = system: ACHN renal
[5] = system: BT-549 breast
[6] = system: CAKI-1 renal
[7] = system: CCRF-CEM leukemia
[8] = system: COLO 205 colon
[9] = system: DU-145 prostate
[10] = system: EKVX NSCLC
[11] = system: HCC-2998 colon
[12] = system: HCT-116 colon
[13] = system: HCT-15 colon
[14] = system: HL-60(TB) leukemia
[15] = system: HOP-62 NSCLC
[16] = system: HOP-92 NSCLC
[17] = system: HS 578T breast
[18] = system: HT29 colon
[19] = system: IGROV1 ovarian
[20] = system: K-562 leukemia
[21] = system: KM12 colon
[22] = system: LOX IMVI melanoma
[23] = system: MALME-3M melanoma
[24] = system: MCF7 breast
[25] = system: MDA-MB-231 breast
[26] = system: MDA-MB-435
[27] = system: MDA-N
[28] = system: MOLT-4 leukemia
[29] = system: NCI-H226 lung
[30] = system: NCI-H23 lung
[31] = system: NCI-H460 lung
[32] = system: NCI-H522 lung
[33] = system: NCI/ADR-RES ovarian
[34] = system: OVCAR-3 ovarian
[35] = system: OVCAR-4 ovarian
[36] = system: OVCAR-8 ovarian
[37] = system: PC-3 prostate
[38] = system: RPMI-8226 leukemia
[39] = system: RXF 393 renal
[40] = system: SF-268 CNS
[41] = system: SF-295 CNS
[42] = system: SF-539 CNS
[43] = system: SK-MEL-28 melanoma
[44] = system: SK-MEL-5 melanoma
[45] = system: SK-OV-3 ovarian
[46] = system: SN12C renal
[47] = system: SNB-75 CNS
[48] = system: SR leukemia
[49] = system: SW-620 colon
[50] = system: T-47D breast
[51] = system: TK-10 renal
[52] = system: U251 CNS
[53] = system: UACC-257 melanoma
[54] = system: UACC-62 melanoma
[55] = system: UO-31 renal
[56] = system: M14 melanoma
[57] = system: SNB-19 CNS
[58] = system: OVCAR-5 ovarian
[59] = system: SK-MEL-2 melanoma

SMILES: COc1ccc(CNc2nc3ccccc3nc2C(=O)O)cc1OC
- TGI [1]: > 100 µM
- TGI [2]: > 100 µM
- TGI [3]: > 100 µM
- TGI [4]: > 100 µM
- TGI [5]: > 100 µM
- TGI [6]: > 100 µM
- TGI [7]: > 100 µM
- TGI [8]: > 100 µM
- TGI [9]: > 100 µM
- TGI [10]: > 100 µM
- TGI [11]: > 100 µM
- TGI [12]: > 100 µM
- TGI [13]: > 100 µM
- TGI [14]: > 100 µM
- TGI [15]: > 100 µM
- TGI [16]: > 100 µM
- TGI [17]: > 100 µM
- TGI [18]: > 100 µM
- TGI [19]: > 100 µM
- TGI [20]: > 100 µM
- TGI [21]: > 100 µM
- TGI [22]: > 100 µM
- TGI [23]: > 100 µM
- TGI [24]: > 100 µM
- TGI [25]: > 100 µM
- TGI [26]: > 100 µM
- TGI [27]: > 100 µM
- TGI [28]: > 100 µM
- TGI [29]: > 100 µM
- TGI [30]: > 100 µM
- TGI [31]: > 100 µM
- TGI [32]: > 100 µM
- TGI [33]: > 100 µM
- TGI [34]: > 100 µM
- TGI [35]: > 100 µM
- TGI [36]: > 100 µM
- TGI [37]: > 100 µM
- TGI [38]: > 100 µM
- TGI [39]: > 100 µM
- TGI [40]: > 100 µM
- TGI [41]: > 100 µM
- TGI [42]: > 100 µM
- TGI [43]: > 100 µM
- TGI [44]: > 100 µM
- TGI [45]: > 100 µM
- TGI [46]: > 100 µM
- TGI [47]: > 100 µM
- TGI [48]: > 100 µM
- TGI [49]: > 100 µM
- TGI [50]: > 100 µM
- TGI [51]: > 100 µM
- TGI [52]: > 100 µM
- TGI [53]: > 100 µM
- TGI [54]: > 100 µM
- TGI [55]: > 100 µM

SMILES: CC1C2CC(CC23OCC(CCl)O3)C1(C)C (stereo unspecified)
- TGI [1]: > 100 µM
- TGI [2]: > 100 µM
- TGI [3]: > 100 µM
- TGI [4]: > 100 µM
- TGI [5]: > 100 µM
- TGI [6]: > 100 µM
- TGI [7]: > 100 µM
- TGI [8]: > 100 µM
- TGI [9]: > 100 µM
- TGI [10]: > 100 µM
- TGI [11]: > 100 µM
- TGI [12]: > 100 µM
- TGI [13]: > 100 µM
- TGI [14]: > 100 µM
- TGI [15]: > 100 µM
- TGI [16]: > 100 µM
- TGI [17]: > 100 µM
- TGI [18]: > 100 µM
- TGI [19]: > 100 µM
- TGI [20]: > 100 µM
- TGI [21]: > 100 µM
- TGI [22]: > 100 µM
- TGI [56]: > 100 µM
- TGI [23]: > 100 µM
- TGI [24]: > 100 µM
- TGI [25]: > 100 µM
- TGI [26]: > 100 µM
- TGI [27]: > 100 µM
- TGI [28]: > 100 µM
- TGI [29]: > 100 µM
- TGI [30]: > 100 µM
- TGI [31]: > 100 µM
- TGI [32]: > 100 µM
- TGI [33]: > 100 µM
- TGI [34]: > 100 µM
- TGI [35]: > 100 µM
- TGI [36]: > 100 µM
- TGI [37]: > 100 µM
- TGI [38]: > 100 µM
- TGI [39]: > 100 µM
- TGI [40]: > 100 µM
- TGI [41]: > 100 µM
- TGI [42]: > 100 µM
- TGI [43]: > 100 µM
- TGI [44]: > 100 µM
- TGI [45]: > 100 µM
- TGI [46]: > 100 µM
- TGI [57]: > 100 µM
- TGI [47]: > 100 µM
- TGI [48]: > 100 µM
- TGI [49]: > 100 µM
- TGI [50]: > 100 µM
- TGI [51]: > 100 µM
- TGI [53]: > 100 µM
- TGI [54]: > 100 µM
- TGI [55]: > 100 µM

SMILES: Cc1ccc(S(=O)(=O)C2=C([Si](C)(C)C)C3CC2[C@@H]2C4C=CC(CC4)[C@H]32)cc1 (stereo partly specified)
- TGI [1]: > 100 µM
- TGI [2]: > 100 µM
- TGI [3]: > 100 µM
- TGI [4]: > 100 µM
- TGI [5]: > 100 µM
- TGI [6]: > 100 µM
- TGI [8]: > 100 µM
- TGI [9]: > 100 µM
- TGI [10]: > 100 µM
- TGI [11]: > 100 µM
- TGI [12]: > 100 µM
- TGI [13]: > 100 µM
- TGI [14]: > 100 µM
- TGI [15]: > 100 µM
- TGI [16]: > 100 µM
- TGI [17]: > 100 µM
- TGI [18]: > 100 µM
- TGI [19]: > 100 µM
- TGI [20]: > 100 µM
- TGI [21]: > 100 µM
- TGI [22]: > 100 µM
- TGI [56]: > 100 µM
- TGI [23]: > 100 µM
- TGI [24]: > 100 µM
- TGI [25]: > 100 µM
- TGI [26]: > 100 µM
- TGI [27]: > 100 µM
- TGI [28]: > 100 µM
- TGI [29]: > 100 µM
- TGI [31]: > 100 µM
- TGI [32]: > 100 µM
- TGI [33]: > 100 µM
- TGI [34]: > 100 µM
- TGI [35]: > 100 µM
- TGI [58]: > 100 µM
- TGI [36]: > 100 µM
- TGI [37]: > 100 µM
- TGI [39]: > 100 µM
- TGI [40]: > 100 µM
- TGI [41]: > 100 µM
- TGI [42]: 88 µM
- TGI [59]: 77.4 µM
- TGI [43]: > 100 µM
- TGI [44]: > 100 µM
- TGI [45]: > 100 µM
- TGI [46]: > 100 µM
- TGI [57]: 76.1 µM
- TGI [48]: > 100 µM
- TGI [49]: > 100 µM
- TGI [50]: > 100 µM
- TGI [51]: 99.2 µM
- TGI [52]: > 100 µM
- TGI [53]: > 100 µM
- TGI [54]: > 100 µM
- TGI [55]: > 100 µM
